Results taken from patent publication US20240016787A1, “METHODS FOR TREATMENT OF CANCER AND PHAGOCYTOSIS-DEFICIENCY RELATED DISEASES” (RDiscovery, LLC, priority 2020, published 2024).

Assays:
[1] = test system: Capan-1 human pancreatic ductal adenocarcinoma cells; experiment: Subcutaneous Capan-1 pancreatic cancer xenograft model in female BALB/c nude mice; type: in vivo
Method: A study of the in vivo therapeutic efficacy of cilnidipine as a single agent or in combination with gemcitabine in the treatment of the subcutaneous Capan-1 pancreatic cancer xenograft model in female BALB/c nude mice was performed.
Female BALB/c nude mice 7-9 weeks of age were used in the study.
Capan-1 human pancreatic ductal adenocarcinoma cells were cultured in IMEM medium with 20% FBS at 37° C. and 5% CO2 in air atmosphere.
Each mouse was inoculated subcutaneously in the right upper flank region with tumor cells (5×10^6 cells) in 0.1 ml of PBS with Matrigel (1:1) for tumor development.
Randomization was started when the mean tumor size reached approximately 254.27 mm^3. A total of 48 mice were enrolled in the study and randomly allocated to the six study groups, with eight mice per group. Randomization was performed based on “Matched distribution” method (Study Director™ software, version 3.1.399.19). The date of randomization was denoted as day 0.
After tumor inoculation, the animals were checked daily for morbidity and mortality. During routine monitoring, the animals were checked for any effects of tumor growth and treatments on behavior such as mobility, food and water consumption, body weight gain/loss (body weights were measured twice per week after randomization), eye/hair matting and any other abnormalities. Mortality and observed clinical signs were recorded for individual animals in detail.
Tumor volumes were measured twice per week after randomization in two dimensions using a caliper, and the volume was expressed in mm^3 using the formula: V=(L×W×W)/2, where V is tumor volume, L is tumor length (the longest tumor dimension) and W is tumor width (the longest tumor dimension perpendicular to L). Dosing as well as tumor and body weight measurements were conducted in a Laminar Flow Cabinet. Body weights and tumor volumes were measured by using Study Director™ software (version 3.1.399.19).
The vehicle used for cilnidipine was 5% DMSO and corn oil. The vehicle used for gemcitabine was saline. Dosing volume was adjusted for body weight (dosing volume=5/10 μL/g). Treatments were initiated on day 0 following randomization.
The study was planned so that (1) mice showing a body weight loss (BWL)>20% after one measurement would be sacrificed, (2) mice showing BWL>15% after one measurement would be given a dosing holiday in a separate cage alone with daily monitoring for 72 hours, while other mice in the same group would receive dosing as scheduled, with treatment of the isolated mouse resuming when the BWL had recovered to BWL<10%, and (3) mice showing a BWL>10% would receive supplemental gel. BWL was calculated based on the BW on the first day of treatment.
The study endpoint was tumor growth inhibition (TGI). […] TGI is expressed as: TGI (%)=100×(1−T/C). […]

mdx mouse = mdx mouse model of Duchenne muscular dystrophy (DMD); type: in vivo; conditions: mdx mice, vs MDX-Vehicle
Method: The effect of cilnidipine and the cilnidipine derivative NS4-043 in the mdx mouse model of Duchenne muscular dystrophy (DMD) model was evaluated. The mdx mouse has a point mutation in its DMD gene, changing the amino acid coding for a glutamine to a stop codon, which causes the muscle cells to produce a small, nonfunctional dystrophin protein.
Animals were dosed once daily with vehicle, idebenone or cilnidipine on study days: 0 to 20.
Mice were evaluated by a rotarod test on study days 19 and 20. Body weight was measured throughout the study period. […] (CK) and […] (LDH), two biomarkers of DMD, were measured on day 21.

[2] = test system: J774.1 mouse macrophage cell line; experiment: In vitro phagocytosis of PE-labeled polystyrene beads by macrophages (flow cytometry); type: cell-based; conditions: 0.3 μM, 1 μM, or 3 μM for 20 hours; beads 2.5 hours; vs DMSO vehicle
Method: The effect of cilnidipine on phagocytosis by macrophages was evaluated in vitro using the J774.1 mouse macrophage cell line. Cells were seeded at 2×10^5 cells/well/200 μL of a 48 well plate and cultured for 24 hours in DMEM medium containing 10% FBS and antibiotics at 37° C. under 5% CO2. Cells were washed once and then incubated with cilnidipine at concentrations 0.3 μM, 1 μM, or 3 μM, or DMSO (vehicle) for 20 hours.
The level of phagocytosis was evaluated by adding 10 μL of DMEM medium containing 4×10^6 PE-labeled polystyrene beads (Fluoresbrite® Polychromatic Red Microspheres 2.0 μm) to cells and culturing them for 2.5 hours. Cells were then washed 3 times with PBS and collected. The level of phagocytic activity was assessed by flow cytometry, measuring the amount of fluorescent signal derived from the PE-labelled beads that were taken up by the cells, with cells treated with 0.1% DMSO used as negative control. The proportions of cells engulfing 1 or more, 2 or more, 3 or more, and 4 or more particles were measured.

[3] = test system: pancreatic and melanoma cancer cell lines; experiment: Anti-proliferative effects on cancer cell lines in vitro; type: cell-based; conditions: AsPC-1, Capan-1, KP4, MIA PaCa-2, BxPC-3, A375, SK-MEL-28, MeWo
Method: The effect of cilnidipine on cell proliferation of eight cancer cell lines is evaluated. Five pancreatic cancer cell lines are included, four containing KRAS mutations (AsPC-1 (G12D), Capan-1 (G12V), KP4 (M188V, G12D) and MIA PaCa-2 (G12C)), and one pancreatic cancer cell line with wild type KRAS, BxPC-3, in addition to three melanoma cell lines, two of which contain B-Raf mutations: A375 (V600E) and SK-MEL-28 (V600E), and one melanoma cell line with wild type B-Raf, MeWo.

[4] = test system: MC38 cells, a murine colon adenocarcinoma cell line; experiment: In vivo anti-tumor effect in MC38 tumor-bearing C57BL/6 mice; set-up: species or system mouse; conditions: i.t. on days 10 and 14 after tumor inoculation; vs control mice
Method: The in vivo anti-tumor effect of cilnidipine is assessed in MC38 tumor-bearing C57BL/6 mice. Five or seven week old C57BL/6 mice are maintained under specific pathogen-free (SPF) conditions. Mice are injected subcutaneously with 5×10^5 MC38 cells, a murine colon adenocarcinoma cell line, and treated i.t. with cilnidipine on days 10 and 14 after tumor inoculation. Tumor volume is measured at the various time points.

[5] = 200 mg/kg once daily days 0 to 20, measured day 21
[6] = 10 mg/kg once daily days 0 to 20, measured day 21

Nc1ccn([C@@H]2O[C@H](CO)[C@@H](O)C2(F)F)c(=O)n1 [Gemcitabine]
Tumor Growth Inhibition (TGI) on Day 20, TGI vs G01 ([1]; Group 2: gemcitabine 30 mg/kg i.p. Q3D × 4): 15.273% | Tumor Growth Inhibition (TGI) on Day 20, TGI vs G01 ([1]; Group 3: gemcitabine 100 mg/kg i.p. Q3D × 4): 30.717%

COC1=C(OC)C(=O)C(CCCCCCCCCCO)=C(C)C1=O [Idebenone]
plasma CK (mdx mouse; [5]): but not idebenone, significantly suppressed plasma CK | plasma LDH (mdx mouse; [5]): significantly decreased plasma LDH

COCCOC(=O)C1=C(C)NC(C)=C(C(=O)OC/C=C/c2ccncc2)C1c1ccccc1[N+](=O)[O-] (stereo not drawn) [NS4-043]
plasma LDH (mdx mouse; [6]): did not significantly decrease plasma LDH

COCCOC(=O)C1=C(C)NC(C)=C(C(=O)OC/C=C/c2ccccc2)C1c1cccc([N+](=O)[O-])c1 (stereo not drawn) [Cilnidipine]
phagocytic activity of macrophages [2]: enhanced phagocytic activity of macrophages in a dose dependent manner | anti-proliferative effect on cancer cell lines [3]: has an anti-proliferative effect on the cell lines | tumor growth [4]: reduces tumor growth as compared to control mice | plasma CK (mdx mouse; [6]): significantly suppressed plasma CK | plasma LDH (mdx mouse; [6]): significantly decreased plasma LDH | Tumor Growth Inhibition (TGI) on Day 20, TGI vs G01 ([1]; Group 4: cilnidipine 10 mg/kg p.o. QD × 21 days): 9.014% | Tumor Growth Inhibition (TGI) on Day 20, TGI vs G01 ([1]; Group 4: cilnidipine 10 mg/kg p.o. QD × 21 days, listed as cilnidipine): 9.01%
